From patent US6653460B1 (priority 1996, dated 2003)

Legend:
[1] = target: T1, class E calcium channels (192C cells) (Homo sapiens, UniProt Q15878); type: cell-based
T1 construct: expressed in transfected cells; host or cells: HEK 293 (192C cells)

[2] = tested on: calcium current (carried by barium) in neurohypophysial terminals; type: cell-based, rat

T1 sequence (Q15878 whole entry): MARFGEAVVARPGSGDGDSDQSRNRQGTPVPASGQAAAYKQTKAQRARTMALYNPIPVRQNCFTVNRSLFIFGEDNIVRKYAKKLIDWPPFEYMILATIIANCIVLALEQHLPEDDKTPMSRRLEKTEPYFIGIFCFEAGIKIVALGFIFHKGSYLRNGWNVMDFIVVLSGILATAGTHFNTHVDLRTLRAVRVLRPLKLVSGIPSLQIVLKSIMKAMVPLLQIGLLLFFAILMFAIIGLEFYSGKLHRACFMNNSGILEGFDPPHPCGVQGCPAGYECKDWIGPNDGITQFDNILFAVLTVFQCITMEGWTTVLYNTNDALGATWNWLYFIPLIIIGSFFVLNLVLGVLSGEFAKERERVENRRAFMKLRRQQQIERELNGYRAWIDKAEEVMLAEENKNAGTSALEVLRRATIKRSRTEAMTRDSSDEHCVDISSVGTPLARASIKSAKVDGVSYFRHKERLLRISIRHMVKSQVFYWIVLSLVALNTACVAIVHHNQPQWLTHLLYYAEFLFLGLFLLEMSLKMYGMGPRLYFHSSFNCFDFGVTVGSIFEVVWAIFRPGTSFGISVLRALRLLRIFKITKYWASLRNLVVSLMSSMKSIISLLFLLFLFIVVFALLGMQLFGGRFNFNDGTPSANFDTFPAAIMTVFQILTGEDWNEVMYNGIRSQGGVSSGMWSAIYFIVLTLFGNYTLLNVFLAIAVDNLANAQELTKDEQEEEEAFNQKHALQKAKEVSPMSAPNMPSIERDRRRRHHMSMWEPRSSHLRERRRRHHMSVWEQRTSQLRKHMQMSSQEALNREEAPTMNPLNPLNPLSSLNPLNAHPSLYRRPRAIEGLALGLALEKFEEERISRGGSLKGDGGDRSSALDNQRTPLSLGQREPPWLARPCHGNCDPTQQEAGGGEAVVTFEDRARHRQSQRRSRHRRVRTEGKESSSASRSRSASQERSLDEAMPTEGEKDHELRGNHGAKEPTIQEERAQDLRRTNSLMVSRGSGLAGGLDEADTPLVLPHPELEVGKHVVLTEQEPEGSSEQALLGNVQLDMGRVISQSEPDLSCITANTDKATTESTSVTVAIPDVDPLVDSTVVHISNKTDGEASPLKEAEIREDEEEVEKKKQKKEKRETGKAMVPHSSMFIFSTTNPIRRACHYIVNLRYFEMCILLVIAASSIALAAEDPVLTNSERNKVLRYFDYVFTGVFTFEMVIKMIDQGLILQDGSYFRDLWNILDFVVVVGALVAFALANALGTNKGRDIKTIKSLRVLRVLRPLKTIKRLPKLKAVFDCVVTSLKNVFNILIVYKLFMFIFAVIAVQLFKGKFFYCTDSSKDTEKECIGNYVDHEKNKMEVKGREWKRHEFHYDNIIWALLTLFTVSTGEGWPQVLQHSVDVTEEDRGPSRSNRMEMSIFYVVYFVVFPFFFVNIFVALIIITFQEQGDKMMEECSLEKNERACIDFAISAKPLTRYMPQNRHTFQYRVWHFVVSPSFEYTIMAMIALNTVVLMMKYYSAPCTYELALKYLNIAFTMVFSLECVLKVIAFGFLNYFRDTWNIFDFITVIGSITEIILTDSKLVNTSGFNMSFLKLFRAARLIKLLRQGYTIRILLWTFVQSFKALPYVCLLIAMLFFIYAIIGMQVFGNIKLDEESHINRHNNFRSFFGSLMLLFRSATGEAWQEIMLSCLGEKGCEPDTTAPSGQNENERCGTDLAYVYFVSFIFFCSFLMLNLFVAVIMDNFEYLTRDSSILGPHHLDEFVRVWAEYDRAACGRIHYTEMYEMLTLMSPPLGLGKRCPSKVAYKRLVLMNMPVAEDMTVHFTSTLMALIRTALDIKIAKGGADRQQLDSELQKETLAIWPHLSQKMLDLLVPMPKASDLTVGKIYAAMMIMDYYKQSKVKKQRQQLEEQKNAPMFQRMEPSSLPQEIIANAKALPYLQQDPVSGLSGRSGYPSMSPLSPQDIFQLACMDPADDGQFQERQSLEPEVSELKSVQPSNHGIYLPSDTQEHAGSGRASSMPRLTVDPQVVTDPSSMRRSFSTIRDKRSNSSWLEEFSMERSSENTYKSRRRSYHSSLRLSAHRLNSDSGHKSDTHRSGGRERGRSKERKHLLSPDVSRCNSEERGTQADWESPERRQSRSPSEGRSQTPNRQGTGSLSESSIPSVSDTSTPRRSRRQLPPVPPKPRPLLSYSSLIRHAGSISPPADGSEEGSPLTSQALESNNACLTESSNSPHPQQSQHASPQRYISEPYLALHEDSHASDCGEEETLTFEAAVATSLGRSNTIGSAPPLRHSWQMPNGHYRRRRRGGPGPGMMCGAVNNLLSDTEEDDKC

Structure (SMILES): CSCC[C@@H]1NC(=O)[C@H](CC(C)C)NC(=O)[C@H](CCCNC(=N)N)NC(=O)[C@H](CO)NC(=O)[C@@H]2CSSC[C@@H]3NC(=O)[C@H](CO)NC(=O)CNC(=O)[C@H]([C@@H](C)O)NC(=O)[C@H](CSSC[C@H](N)C(=O)N[C@@H](CCCCN)C(=O)NCC(=O)N[C@@H](CCCCN)C(=O)NCC(=O)N[C@@H](C)C(=O)N[C@@H](CCCCN)C(=O)N2)NC(=O)[C@H](CSSC[C@@H](C(N)=O)NC(=O)[C@H](CCCCN)NC(=O)CNC(=O)[C@H](CO)NC(=O)[C@H](CCCNC(=N)N)NC3=O)NC(=O)[C@H](CC(=O)O)NC(=O)[C@H](Cc2ccc(O)cc2)NC1=O [SNX-111]
- sensitivity of depolarization evoked increase in internal calcium [1]: resistant
- block of current remaining after nicardipine [2]: blocked part but not all of the remaining current
